Experiments:
Assay in all cases: cells
Parameters in all cases: JFCR39 human cancer cell line panel, antiproliferative dose response (optical density), GI50
[1] = tested on: BSY-1; details: BSY-1
Procedure: (§1) Initially, we evaluated new DDP analogues for their antiproliferative activities across the panel of 39 human cancer cell lines, JFCR39[50],[51]. […] Purified DDPs was dissolved in DMSO (Specially Prepared Reagent, Nuclease and Protease tested, NACALAI, 09659-14) to prepare 5 mM solutions. The Each DDP solution (5 mM) was used for antiproliferative effects on cancer cell lines (Supplementary Notes 23, 24, 25, 26), biological activity against Drosophila (Supplementary Note 27), anti-HIV assay (Supplementary Note 28) and screening of amyloid Ab42 aggregation inhibitors (Supplementary Notes 29).

[2] = tested on: SF-268; details: Homo sapiens, SF-268
Procedure: as §1

[3] = tested on: PC-3; details: Homo sapiens, PC-3
Procedure: as §1

[4] = tested on: ACHN; details: Homo sapiens, ACHN
Procedure: as §1

[5] = tested on: SK-OV-3; details: Homo sapiens, SK-OV-3
Procedure: as §1

[6] = tested on: HBC-5; details: HBC5
Procedure: as §1

[7] = tested on: MKN45; details: Homo sapiens, MKN-45
Procedure: as §1

[8] = tested on: MKN74; details: Homo sapiens, MKN-74
Procedure: as §1

[9] = tested on: SF-539; details: Homo sapiens, SF-539
Procedure: as §1

[10] = tested on: OVCAR-5; details: Homo sapiens, OVCAR-5
Procedure: as §1

[11] = tested on: HCT-116; details: Homo sapiens, HCT-116
Procedure: as §1

[12] = tested on: NCI-H226; details: Homo sapiens, NCI-H226
Procedure: as §1

[13] = tested on: HT-29; details: Homo sapiens, HT-29
Procedure: as §1

[14] = tested on: A549; details: Homo sapiens, A549
Procedure: as §1

[15] = tested on: OVCAR-4; details: Homo sapiens, OVCAR-4
Procedure: as §1

| GI50 [3] [µM] | GI50 [4] [µM] | GI50 [5] [µM] | GI50 [7] [µM] | GI50 [8] [µM] | GI50 [10] [µM] | GI50 [11] [nM] | GI50 [12] [µM] | GI50 [13] [µM] | GI50 [14] [µM] | GI50 [15] [µM] | Structure (SMILES) | GI50 [1] [µM] | GI50 [2] [µM] | GI50 [6] [µM] | GI50 [9] [µM] |
| --- | --- | --- | --- | --- | --- | --- | --- | --- | --- | --- | --- | --- | --- | --- | --- |
| 11.8 | 11.6 | 10.7 | 9.14 | 3.72 | 14.5 | 1300 | 10.6 | 10.1 | 6.88 | 6.49 | C=C1CC[C@H]2[C@]3(C)C[C@H](C=C(C)C)O[C@H]3CC[C@]2(C)[C@@H]1Cc1c(OC)oc(C)c(C)c1=O [Compound 24] | 9.59 | 8.09 | 10.7 | 7.26 |
| 10.9 | 11.8 | 10.8 | 11.1 | 4.22 | 15.4 | 995 | 10.7 | 10.3 | 10.4 | 7.04 | C=C1CCC2C3(C)CC(C=C(C)C)OC3CCC2(C)C1Cc1c(OC)oc(C)c(C)c1=O (stereo not drawn) [Compound 23] | 10.3 | 8.62 | 10.7 | 5.57 |

Source: publication PMC7156458, “Synthetic biology based construction of biological activity-related library of fungal decalin-containing diterpenoid pyrones” (Nature Communications, 2020)
